Data as given in ChEMBL document CHEMBL1268926, “An o-aminoanilide analogue of 1α,25-dihydroxyvitamin D(3) functions as a strong vitamin D receptor antagonist” (J Med Chem, 2010).
Activity calls are given as the source filed them. The rule behind the calls is not given here.

Assays:
[1] = target: T1, Vitamin D3 receptor (Homo sapiens) (UniProt P11473); assay: Agonist activity at VDR in human SCC25 cells assessed as induction of CYP24 expression at 1 to 10 uM by semiquantitative analysis; assay type: functional, cell-based; details: SCC-25
T1 sequence (whole entry): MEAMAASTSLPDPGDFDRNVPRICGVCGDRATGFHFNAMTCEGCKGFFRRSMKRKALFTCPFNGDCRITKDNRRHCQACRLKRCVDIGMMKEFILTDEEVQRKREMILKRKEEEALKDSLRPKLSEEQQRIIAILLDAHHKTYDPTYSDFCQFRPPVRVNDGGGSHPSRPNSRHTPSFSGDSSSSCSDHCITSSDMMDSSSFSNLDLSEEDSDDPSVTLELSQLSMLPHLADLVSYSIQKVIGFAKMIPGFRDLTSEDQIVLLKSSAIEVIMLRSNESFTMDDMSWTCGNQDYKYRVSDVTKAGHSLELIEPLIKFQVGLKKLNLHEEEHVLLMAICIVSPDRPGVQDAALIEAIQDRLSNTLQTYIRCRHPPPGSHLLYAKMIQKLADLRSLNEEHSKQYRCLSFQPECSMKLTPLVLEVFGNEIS

[2] = target: Histone deacetylase (Homo sapiens) (UniProt Q13547+O15379+Q9UBN7+Q92769+Q9UQL6+Q8WUI4+Q9BY41+Q96DB2+P56524+Q9UKV0+Q969S8); assay: Inhibition of HDAC in human SCC4 cells assessed as hyperacetylation of histone H4 at 1 uM by Western blotting; details: SCC-4
[3] = target: T1, Vitamin D3 receptor (Homo sapiens); details: 1uM
Description: Inhibition of VDR agonist-mediated AIB1 recruitment to CYP24 promoter in ChIP assay at 1uM

[4] = target: T1, Vitamin D3 receptor (Homo sapiens); assay: Agonist activity at VDR in human SCC25 cells assessed as induction of CYP24 expression at 1 to 10 uM by RT-PCR analysis; assay type: functional, cell-based; details: SCC-25
Vitamin D3 receptor = target: T2, Vitamin D3 receptor (Homo sapiens, UniProt P11473); assay: Binding affinity to VDR-LBD by fluorescence polarization competition assay
T2 sequence (P11473 whole entry): T1 sequence (whole entry)

Tubulin (Homo sapiens) = Tubulin (Homo sapiens) (UniProt P68371+Q9H4B7+P0DPH7+P68366+Q13509+Q71U36+P04350+Q3ZCM7+P07437+P68363+Q9BQE3+Q6PEY2+Q13885+Q9BVA1+Q9BUF5); assay: Inhibition of HDAC in human SCC25 cells assessed as hyperacetylation of tubulin at 1 uM by Western blotting; assay type: cell-based; details: SCC-25
[5] = target: T3, Protein deacetylase HDAC6 (Homo sapiens) (UniProt Q9UBN7); assay: Inhibition of human recombinant HDAC6 up to 1 mM by fluorescence assay
T3 sequence (whole entry): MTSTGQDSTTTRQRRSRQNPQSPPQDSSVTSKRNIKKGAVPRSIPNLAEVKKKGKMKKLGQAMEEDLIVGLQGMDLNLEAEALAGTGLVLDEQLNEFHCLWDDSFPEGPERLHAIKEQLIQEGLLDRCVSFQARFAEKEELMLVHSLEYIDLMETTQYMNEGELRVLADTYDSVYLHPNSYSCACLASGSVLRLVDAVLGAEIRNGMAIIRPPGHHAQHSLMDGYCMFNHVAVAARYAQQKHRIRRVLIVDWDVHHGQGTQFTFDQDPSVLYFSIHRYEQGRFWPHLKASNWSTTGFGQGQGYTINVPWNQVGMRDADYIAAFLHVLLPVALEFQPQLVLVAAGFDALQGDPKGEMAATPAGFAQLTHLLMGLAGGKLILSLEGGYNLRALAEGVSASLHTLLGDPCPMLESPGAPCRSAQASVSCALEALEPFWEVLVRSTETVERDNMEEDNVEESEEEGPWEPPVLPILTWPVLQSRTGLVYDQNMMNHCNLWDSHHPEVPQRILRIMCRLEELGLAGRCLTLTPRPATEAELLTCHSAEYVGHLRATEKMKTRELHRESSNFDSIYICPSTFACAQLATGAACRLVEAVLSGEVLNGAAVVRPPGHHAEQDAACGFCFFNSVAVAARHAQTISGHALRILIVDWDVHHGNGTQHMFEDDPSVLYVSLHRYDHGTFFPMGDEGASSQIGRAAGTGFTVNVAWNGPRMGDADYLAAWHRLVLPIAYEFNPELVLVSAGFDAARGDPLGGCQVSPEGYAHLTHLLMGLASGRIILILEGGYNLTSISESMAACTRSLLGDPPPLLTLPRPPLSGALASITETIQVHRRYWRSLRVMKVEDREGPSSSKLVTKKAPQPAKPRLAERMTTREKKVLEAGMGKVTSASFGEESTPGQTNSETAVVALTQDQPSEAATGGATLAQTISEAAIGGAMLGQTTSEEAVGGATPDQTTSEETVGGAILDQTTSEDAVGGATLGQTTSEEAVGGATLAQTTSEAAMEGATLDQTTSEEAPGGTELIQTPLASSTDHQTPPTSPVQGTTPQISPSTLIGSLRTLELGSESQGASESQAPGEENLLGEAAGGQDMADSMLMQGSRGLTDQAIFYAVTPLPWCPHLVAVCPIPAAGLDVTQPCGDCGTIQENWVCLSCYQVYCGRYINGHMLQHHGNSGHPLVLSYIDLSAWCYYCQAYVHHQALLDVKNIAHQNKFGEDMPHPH

Activity [1]	inhibition [2]	inhibition [3]	Activity [4]	IC50 (Vitamin D3 receptor) [nM]	inhibition (Tubulin (Homo sapiens))	inhibition [5]	SMILES
inactive	inactive	Active	inactive	107	inactive	inactive	CC(/C=C/C(=O)Nc1ccccc1N)=C\[C@@H](C)[C@H]1CC[C@H]2/C(=C/C=C3CC(O)C[C@H](O)C3)CCC[C@]12C (single isomer, unassigned)
Active			Active				C=C1/C(=C\C=C2/CCC[C@]3(C)[C@@H]([C@H](C)/C=C/[C@@H](O)C4(C(=O)OCCCC)CC4)CC[C@@H]23)C[C@@H](O)C[C@@H]1O
	Active			248	Active		C[C@H](CCCCC(=O)Nc1ccccc1N)[C@H]1CC[C@H]2/C(=C/C=C3C[C@@H](O)C[C@H](O)C3)CCC[C@]12C
